Among the data in PubChem BioAssay (NCI) are TGI and GI50 values, retold here.

Where “and” joins values, the source holds several entries; their conditions need not be identical. Equal entries are not always repeated.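 Protocol summary: plate cells (96-well), add compound at 5 concentrations, incubate 48 h, interpolate endpoints linearly. Here, GI50 denotes the concentration required for 50% inhibition of growth. The concentration for full growth arrest is given as TGI.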

What all share (test): NCI tumour cell line growth inhibition, 48 h
Assay [1] has as its system UACC-257 melanoma.
Assay [2] deals with HT29 colon.
Assay [3] relates to NCI-H23 lung.
For assay [4], the system named is MOLT-4 leukemia.
The subject of assay [5] is A549 NSCLC.
The test system of assay [6] is SR leukemia.
Assay [7] relates to SK-OV-3 ovarian.
For assay [8], the system named is SNB-19 CNS.
In assay [9] the test system is HOP-62 NSCLC.
In assay [10] the test system is IGROV1 ovarian.

As to `CN1CCC(=O)/C(=C/c2ccccc2)C1`, the TGI in [1] is 28.2 µM; in assay [2] it was 11 µM; in assay [3], 36.1 µM; in [4], 34.3 µM; in assay [5], 34.3 µM; in assay [6] it was 61.3 µM. In addition, the TGI stood at 35.3 µM in [7], 30.8 µM in [8], 40.2 µM in assay [9] and 33.5 µM in [10].

With `CN(C)C(=S)/N=c1\sn(C)/c(=N\C(=S)N(C)C)n1C`, the TGI in assay [1], in assay [2], in [3], in assay [4], in [5] and in assay [6] was greater than 100 µM in each case. The TGI in assay [7], in assay [8], in assay [9] and in assay [10] was greater than 100 µM each time.

In the case of `N#C/C(=C\c1ccc2ccccc2c1)C(=O)c1ccccc1`, the TGI is greater than 100 µM in assay [1]; greater than 100 µM in [2]; greater than 74.4 µM in assay [3]; 68.8 µM in assay [4]; greater than 100 µM in assay [5]; greater than 100 µM in assay [6]. Besides, the TGI was greater than 100 µM in assay [7], greater than 100 µM in [8], 51.4 µM in [9] and greater than 100 µM in assay [10].

Turning to `NS(=O)(=O)c1ccc(N=Nc2c(O)c(C(=O)O)cc3ccccc23)cc1`, the TGI in [1] is greater than 100 µM; in assay [2], greater than 100 µM; in [3], greater than 100 µM; in assay [4], greater than 100 µM; in assay [5], greater than 100 µM; in [6], greater than 96.1 µM. Also, the TGI in [7] is greater than 100 µM; in [8] it was greater than 90.3 µM; in assay [9], greater than 100 µM; in [10], greater than 100 µM.

For the compound `O=C(/C(=C/c1ccc(Cl)cc1)c1ccccc1)c1ccccc1`, the TGI in assay [1] was 29 µM; in assay [2], 38.4 µM; in assay [3] it was 40.5 µM; in [4], 47 µM; in assay [6] it was 45.3 µM; in [7], 71.7 µM. In addition, the TGI in [9] was determined as 57.5 µM; in assay [10], 49.1 µM.

Turning to `NC(N)=NCCCC(=O)O`, the TGI in [2], in [3], in [4], in assay [5], in [6] and in assay [7] was greater than 100 µM each time. Also, the TGI in assay [8], in assay [9] and in assay [10] was greater than 100 µM in each case.

Consider `NNC(=O)CNc1cccc(Br)c1`, for which the TGI in assay [1], in assay [2], in assay [3], in assay [5], in assay [6] and in assay [7] was greater than 100 µM throughout. In addition, the TGI in assay [8], in assay [9] and in assay [10] was greater than 100 µM throughout.

On to `Cc1cc(N[C@@H]2CCC[C@H](Nc3ccnc4cc(Cl)ccc34)C2)nc(N2CCCCCC2)n1`, for which the GI50 was 2.35 µM in assay [1]; 1.05 µM in [2]; 2.03 µM in [3]; 1.6 µM in [4]; 2.19 µM in assay [5]; 0.228 µM in assay [6]. The GI50 is 1.86 µM in assay [7], 2.56 µM in [8] and 1.37 µM in assay [9]. Besides, the TGI was 4.19 µM in assay [1]; 2.98 µM in assay [2]; 5.43 µM in [3]; 5.73 µM in [4]; 4.94 µM in assay [5]; 0.847 µM in assay [6]. The TGI in assay [7] was 3.73 µM; in assay [8] it was 8.08 µM; in assay [9] it was 3.03 µM.

Turning to `Nc1ncn([C@@H]2O[C@H](CO)[C@@H](O)[C@H]2O)c(=O)n1`, the GI50 in assay [3] is 3.91 µM; in assay [4], 3.41 µM; in [5] it was 1.03 µM; in assay [6], 3.5 µM; in assay [7] it was 1.14 µM; in [8], 4.1 µM. Further, in [9], the GI50 is 0.49 µM. In addition, the TGI in assay [3] was 41.1 µM; in assay [4], 32.1 µM; in assay [5], greater than 100 µM; in assay [6], greater than 100 µM; in assay [7] it was 5.46 µM; in [8], greater than 100 µM. In assay [9], this compound displayed a TGI of 2.67 µM.

For the compound `COc1ccc(-c2nnc3n(C)c(=O)c4ccccc4n23)cc1N`, the GI50 is 0.0432 µM in [2]; 5.28 µM in [3]; 3.92 µM in [4]; 1.47 µM in assay [5]; 0.0346 µM in assay [6]; 3.25 µM in assay [7]. Besides, the results for the GI50 in assay [8], in [9] and in assay [10] were 3.65 µM, 0.0482 µM and 14.7 µM, respectively. For the same compound, the TGI in assay [2], in assay [3], in [4], in [5], in assay [6] and in assay [7] was greater than 100 µM in each case. The TGI in assay [8], in assay [9] and in assay [10] was greater than 100 µM each time.

Turning to `COc1ccc(-c2ccc(=O)oc2C#Cc2cc(OC)c(OC)c(OC)c2)cc1O`, the GI50 in assay [1] is 0.857 µM; in assay [2], 1.25 µM; in assay [3], 1.17 µM; in [4], 0.952 µM; in assay [5], 0.563 µM; in [6], 0.0708 µM. Besides, the figures for the GI50 in assay [7], in [8] and in [9] were 0.318 µM, 0.612 µM and 1.65 µM, respectively. The TGI was greater than 37.3 µM in assay [1]; 12.3 µM in assay [2]; greater than 100 µM in [3]; greater than 100 µM in [4]; 21.9 µM in assay [5]; greater than 100 µM in [6]. The TGI in assay [7] was 5.65 µM; in [8] it was greater than 100 µM; in assay [9], greater than 100 µM.

In the case of `CCOC(=O)N[C@H]1CCc2cc(OC)c(OC)c(OC)c2-c2ccc(SC)c(=O)cc21`, the results for the GI50 in assay [1], in assay [7] and in assay [8] were greater than 70.5 µM, less than 0.01 µM and less than 0.01 µM, respectively. In addition, the TGI is greater than 100 µM in assay [1]; greater than 100 µM in assay [4]; greater than 100 µM in [5]; greater than 100 µM in [6]; 26.8 µM and > 100 µM in assay [7]; 91.7 µM and > 100 µM in assay [8]. In addition, the TGI in assay [9] and in [10] was greater than 100 µM each time.

`O=C(Nc1cccc(C(F)(F)F)c1)c1ccc(NC2=C(Cl)C(=O)N(Cc3ccc(Cl)cc3Cl)C2=O)cc1`: the GI50 in assay [1] was 15.9 µM; in [2], 3.82 µM; in assay [4] it was 1.31 µM; in [5] it was 21.6 µM; in assay [6], 1.83 µM; in assay [7], 60.4 µM. In addition, the GI50 is 22.8 µM in assay [8], 18 µM in assay [9] and 2.01 µM in assay [10]. The TGI in assay [1] was 42.2 µM; in assay [2], 36.8 µM; in assay [4] it was 6.8 µM; in assay [5], 92.4 µM; in [6], 3.93 µM; in assay [7] it was greater than 100 µM. The TGI in [8] is greater than 100 µM; in [9] it was 32.2 µM; in assay [10] it was 4.56 µM.

For the compound `O=c1c(F)cn(Cc2ccc(C34CC5CC(CC(C5)C3)C4)c(O)c2)c(=O)n1Cc1ccc(C23CC4CC(CC(C4)C2)C3)c(O)c1`, the GI50 was 20.7 µM in assay [1]; 13.9 µM in assay [2]; 15.6 µM in [3]; 5.85 µM in assay [4]; 4.2 µM in assay [5]; 7.17 µM in assay [6]. The results for the GI50 in assay [7], in assay [8] and in assay [9] were 17.9 µM, 27.5 µM and 17.5 µM, respectively. Moreover, the TGI in assay [1] was 50.7 µM; in assay [2], 29.9 µM; in [3], 32 µM; in assay [4], 44.4 µM; in assay [5], greater than 100 µM; in [6] it was 26.5 µM. For the same compound, the TGI in [7] is 33.1 µM; in [8], 57.1 µM; in assay [9], 33.1 µM.

As to `Cc1ccc2nc(/C(=C/c3ccc(/C=C(\NC(=O)c4ccccc4)c4nc5ccc(C)cc5[nH]4)c(C)c3)NC(=O)c3ccccc3)[nH]c2c1`, the TGI was greater than 100 µM in assay [2]; 45.3 µM in assay [3]; 26.7 µM in [4]; 65.9 µM in assay [5]; greater than 100 µM in assay [6]; greater than 100 µM in assay [7]. Moreover, the TGI in assay [8], in [9] and in assay [10] was greater than 100 µM throughout.

For the compound `CC(C)C1=Cc2ccc3c(c2C(=O)C1=O)CCCC3(C)C`, the TGI in assay [1] is 8.64 µM; in [2] it was 46.2 µM; in assay [3], 29.6 µM; in assay [5], 34.8 µM; in assay [6] it was 6.48 µM; in [7], 32 µM. For the same compound, the TGI in assay [8] worked out at 31.3 µM; in assay [9], 37 µM; in assay [10] it was 12.9 µM.
